Measurements: ChEMBL document CHEMBL3603774, “Novel 5-functionalized-pyrazoles: Synthesis, characterization and pharmacological screening” (Bioorg Med Chem Lett, 2015)
In brackets after ≈: the same amount, converted by molar mass.

Key:
Bacillus cereus [1] = assay: Antibacterial activity against Bacillus cereus MTCC 8372 at 50 ug/ml after 24 hrs by disc diffusion method; format: functional; conditions: MTCC 8372, 24 h, read-out: IZ
Bacillus cereus [2] = assay: Antibacterial activity against Bacillus cereus MTCC 8372 at 100 ug/ml after 24 hrs by disc diffusion method; format: functional; conditions: MTCC 8372, 24 h, read-out: IZ
Staphylococcus aureus [3] = assay: Antibacterial activity against Staphylococcus aureus MTCC 96 at 50 ug/ml after 24 hrs by disc diffusion method; format: functional; conditions: MTCC 96, 24 h, read-out: IZ
Staphylococcus aureus [4] = assay: Antibacterial activity against Staphylococcus aureus MTCC 96 at 100 ug/ml after 24 hrs by disc diffusion method; format: functional; conditions: MTCC 96, 24 h, read-out: IZ
Escherichia coli [5] = assay: Antibacterial activity against Escherichia coli MTCC 724 at 50 ug/ml after 24 hrs by disc diffusion method; format: functional; conditions: MTCC 724, 24 h, read-out: IZ
Escherichia coli [6] = assay: Antibacterial activity against Escherichia coli MTCC 724 at 100 ug/ml after 24 hrs by disc diffusion method; format: functional; conditions: MTCC 724, 24 h, read-out: IZ
Klebsiella pneumoniae [7] = assay: Antibacterial activity against Klebsiella pneumoniae MTCC 3384 at 50 ug/ml after 24 hrs by disc diffusion method; format: functional; conditions: MTCC 3384, 24 h, read-out: IZ
Klebsiella pneumoniae [8] = assay: Antibacterial activity against Klebsiella pneumoniae MTCC 3384 at 100 ug/ml after 24 hrs by disc diffusion method; format: functional; conditions: MTCC 3384, 24 h, read-out: IZ
Aspergillus flavus [9] = assay: Antifungal activity against Aspergillus flavus MTCC 873 at 50 ug/ml after 24 hrs by disc diffusion method; format: functional; conditions: MTCC 873, 24 h, read-out: IZ
Aspergillus flavus [10] = assay: Antifungal activity against Aspergillus flavus MTCC 873 at 100 ug/ml after 24 hrs by disc diffusion method; format: functional; conditions: MTCC 873, 24 h, read-out: IZ
Aspergillus niger [11] = assay: Antifungal activity against Aspergillus niger MTCC 281 at 50 ug/ml after 24 hrs by disc diffusion method; format: functional; conditions: MTCC 281, 24 h, read-out: IZ
Bacillus cereus [12] = assay: Antibacterial activity against Bacillus cereus MTCC 8372 after 24 hrs by microdilution method; format: functional; conditions: MTCC 8372, 24 h
Bacillus cereus [13] = assay: Antibacterial activity against Bacillus cereus MTCC 8372 assessed as concentration required to completely destroy test microorganisms after 24 hrs; format: functional; conditions: MTCC 8372, 24 h
Staphylococcus aureus [14] = assay: Antibacterial activity against Staphylococcus aureus MTCC 96 after 24 hrs by microdilution method; format: functional; conditions: MTCC 96, 24 h
Staphylococcus aureus [15] = assay: Antibacterial activity against Staphylococcus aureus MTCC 96 assessed as concentration required to completely destroy test microorganisms after 24 hrs; format: functional; conditions: MTCC 96, 24 h
Escherichia coli [16] = assay: Antibacterial activity against Escherichia coli MTCC 724 after 24 hrs by microdilution method; format: functional; conditions: MTCC 724, 24 h
Escherichia coli [17] = assay: Antibacterial activity against Escherichia coli MTCC 724 assessed as concentration required to completely destroy test microorganisms after 24 hrs; format: functional; conditions: MTCC 724, 24 h
Klebsiella pneumoniae [18] = assay: Antibacterial activity against Klebsiella pneumoniae MTCC 3384 after 24 hrs by microdilution method; format: functional; conditions: MTCC 3384, 24 h
Klebsiella pneumoniae [19] = assay: Antibacterial activity against Klebsiella pneumoniae MTCC 3384 assessed as concentration required to completely destroy test microorganisms after 24 hrs; format: functional; conditions: MTCC 3384, 24 h
Aspergillus flavus [20] = assay: Antifungal activity against Aspergillus flavus MTCC 873 after 48 hrs by microdilution method; format: functional; conditions: MTCC 873, 48 h
Aspergillus flavus [21] = assay: Antifungal activity against Aspergillus flavus MTCC 873 assessed as concentration required to completely destroy test microorganisms after 24 hrs; format: functional; conditions: MTCC 873, 24 h
Aspergillus niger [22] = assay: Antifungal activity against Aspergillus niger MTCC 281 after 48 hrs by microdilution method; format: functional; conditions: MTCC 281, 48 h
Aspergillus niger [23] = assay: Antifungal activity against Aspergillus niger MTCC 281 assessed as concentration required to completely destroy test microorganisms after 24 hrs; format: functional; conditions: MTCC 281, 24 h
Aspergillus niger [24] = assay: Antifungal activity against Aspergillus niger MTCC 281 at 100 ug/ml after 24 hrs by disc diffusion method; format: functional; conditions: MTCC 281, 24 h, read-out: IZ
Alpha amylase = molecular target: T1, Alpha amylase (Homo sapiens, UniProt P0DUB6); assay: Inhibition of alpha-amylase (unknown origin) using starch as substrate after 30 mins by spectrophotometer analysis
T1 sequence (P0DUB6 whole entry): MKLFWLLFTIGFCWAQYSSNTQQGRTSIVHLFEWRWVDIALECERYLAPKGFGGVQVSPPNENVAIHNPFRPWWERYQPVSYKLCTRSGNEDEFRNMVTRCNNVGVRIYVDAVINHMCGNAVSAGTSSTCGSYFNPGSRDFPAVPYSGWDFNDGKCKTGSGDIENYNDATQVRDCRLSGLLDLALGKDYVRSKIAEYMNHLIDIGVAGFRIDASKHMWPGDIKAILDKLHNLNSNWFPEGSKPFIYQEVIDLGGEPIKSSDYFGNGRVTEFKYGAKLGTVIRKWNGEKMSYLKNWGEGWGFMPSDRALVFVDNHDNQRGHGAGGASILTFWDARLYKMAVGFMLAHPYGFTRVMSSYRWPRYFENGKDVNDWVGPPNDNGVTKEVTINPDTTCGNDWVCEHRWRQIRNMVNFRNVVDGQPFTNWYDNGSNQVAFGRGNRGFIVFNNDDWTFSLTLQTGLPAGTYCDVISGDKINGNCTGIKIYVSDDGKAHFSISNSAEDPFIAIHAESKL

[25] = Inhibition of alpha-glucosidase (unknown origin) using p-nitrophenol glycoside as substrate after 30 mins by colorimetric analysis; design: species or system Homo sapiens

MIC (Bacillus cereus [12]) [µg/mL]	MIC (Staphylococcus aureus [14]) [µg/mL]	MIC (Escherichia coli [16]) [µg/mL]	MIC (Klebsiella pneumoniae [18]) [µg/mL]	MIC (Aspergillus flavus [20]) [µg/mL]	SMILES	zone of inhibition at 50 µg/mL (Bacillus cereus [1]) [mm]	zone of inhibition at 100 µg/mL (Bacillus cereus [2]) [mm]	zone of inhibition at 50 µg/mL (Staphylococcus aureus [3]) [mm]	zone of inhibition at 100 µg/mL (Staphylococcus aureus [4]) [mm]	zone of inhibition at 50 µg/mL (Escherichia coli [5]) [mm]	zone of inhibition at 100 µg/mL (Escherichia coli [6]) [mm]	zone of inhibition at 50 µg/mL (Klebsiella pneumoniae [7]) [mm]	zone of inhibition at 100 µg/mL (Klebsiella pneumoniae [8]) [mm]	zone of inhibition at 50 µg/mL (Aspergillus flavus [9]) [mm]	zone of inhibition at 100 µg/mL (Aspergillus flavus [10]) [mm]	zone of inhibition at 50 µg/mL (Aspergillus niger [11]) [mm]	MBC (Bacillus cereus [13]) [µg/mL]	MBC (Staphylococcus aureus [15]) [µg/mL]	MBC (Escherichia coli [17]) [µg/mL]	MBC (Klebsiella pneumoniae [19]) [µg/mL]	further results
45 (≈ 98.6 µM)	45 (≈ 98.6 µM)	40 (≈ 87.6 µM)	45 (≈ 98.6 µM)	40 (≈ 87.6 µM)	CCOC(=O)c1c(-c2ccccc2)nn(-c2ccccc2)c1COc1ccc(C=O)cc1OC	4	8	2	8	3	8	4	6	8	9	12	230 (≈ 504 µM)	240 (≈ 526 µM)	210 (≈ 460 µM)	200 (≈ 438 µM)	MFC (Aspergillus flavus [21]): 250 µg/mL (≈ 548 µM); MIC (Aspergillus niger [22]): 40 µg/mL (≈ 87.6 µM); MFC (Aspergillus niger [23]): 205 µg/mL (≈ 449 µM); zone of inhibition at 100 µg/mL (Aspergillus niger [24]): 10 mm; IC50 (Alpha amylase): 60 µg/mL (≈ 131 µM); IC50 [25]: 70 µg/mL (≈ 153 µM)
50 (≈ 115 µM)	45 (≈ 103 µM)	40 (≈ 91.6 µM)	45 (≈ 103 µM)	40 (≈ 91.6 µM)	CCOC(=O)c1c(-c2ccccc2)nn(-c2ccccc2)c1Cn1cnc2cc(C)ccc21	8	11	6	12	8	12	9	11	16	21	12	220 (≈ 504 µM)	205 (≈ 470 µM)	205 (≈ 470 µM)	240 (≈ 550 µM)	MFC (Aspergillus flavus [21]): 270 µg/mL (≈ 619 µM); MIC (Aspergillus niger [22]): 45 µg/mL (≈ 103 µM); MFC (Aspergillus niger [23]): 165 µg/mL (≈ 378 µM); zone of inhibition at 100 µg/mL (Aspergillus niger [24]): 24 mm; IC50 (Alpha amylase): 45 µg/mL (≈ 103 µM); IC50 [25]: 45 µg/mL (≈ 103 µM)
35 (≈ 76.6 µM)	30 (≈ 65.7 µM)	35 (≈ 76.6 µM)	30 (≈ 65.7 µM)	30 (≈ 65.7 µM)	CCOC(=O)c1c(-c2ccccc2)nn(-c2ccccc2)c1Cn1c(Cl)nc2ccccc21	6	14	9	11	9	19	6	12	8	9	10	220 (≈ 481 µM)	160 (≈ 350 µM)	190 (≈ 416 µM)	190 (≈ 416 µM)	MFC (Aspergillus flavus [21]): 230 µg/mL (≈ 503 µM); MIC (Aspergillus niger [22]): 25 µg/mL (≈ 54.7 µM); MFC (Aspergillus niger [23]): 215 µg/mL (≈ 471 µM); zone of inhibition at 100 µg/mL (Aspergillus niger [24]): 10 mm; IC50 (Alpha amylase): 10 µg/mL (≈ 21.9 µM); IC50 [25]: 20 µg/mL (≈ 43.8 µM)
50 (≈ 121 µM)	40 (≈ 97 µM)	45 (≈ 109 µM)	45 (≈ 109 µM)	55 (≈ 133 µM)	CCOC(=O)c1c(-c2ccccc2)nn(-c2ccccc2)c1COCc1ccccc1	2	8	2	6	4	6	3	6	8	10	12	255 (≈ 618 µM)	210 (≈ 509 µM)	210 (≈ 509 µM)	230 (≈ 558 µM)	MFC (Aspergillus flavus [21]): 270 µg/mL (≈ 655 µM); MIC (Aspergillus niger [22]): 45 µg/mL (≈ 109 µM); MFC (Aspergillus niger [23]): 265 µg/mL (≈ 642 µM); zone of inhibition at 100 µg/mL (Aspergillus niger [24]): 8 mm; IC50 (Alpha amylase): 45 µg/mL (≈ 109 µM); IC50 [25]: 45 µg/mL (≈ 109 µM)
